# Non-standard residues stand in square brackets, D forms with d. No end group written: not given here.
# System: EphB4 and Crk1 (MAPK14)
# Experiment: EphB4 and Crk1 phosphorylation in A2780cp20 cells (IP/immunoblot)
# Assay type: cell-based, human
# Conditions: 50 nM (BIDEN-AP equivalent), 24 h after 16 h serum-free (Fig. S7A)
# Description: Next, we determined the phosphorylation of EphB4 and its downstream adaptor protein Crk1 (MAPK14) in lysates from human A2780cp20 ovarian cancer cells by immunoprecipitation with anti-EphB4 and anti-Crk1 antibodies followed by immunoblotting with phospho-specific antibodies. […] In comparison, Alexa647-labeled antagonist TNYL-RAW was excluded.
# Figure 2 BIDEN-AP acts as an EphB4 agonist. (A) BIDEN-AP induced phosphorylation of EphB4 and the associated MAPK14 (Crk1). […] The uncropped blots are presented in Supplemental Figure 11. (B) BIDEN-AP inhibited A2780cp20 cell invasion compared to untreated controls (CTL). A modified Boyden transwell chamber coated with Matrigel was used. Representative data from three independent experiments using A2780cp20 cells are presented. Each experiment was repeated in triplicate. Data are shown as mean ± SD. ***p < 0.001 by unpaired, two-sided Student t-test. […]
# calculated as Koff/Kon. […]
# The capacity of BIDEN-AP to inhibit the binding of EFNB2 to EphB4 was assessed in a competitive binding assay. […] After each injection, the signal from the control flow cell was subtracted and the relative amount of EphB4 bound to EFNB2-Fc was recorded as the net response over the pre-injection baseline level. […]
# The protein concentrations were determined by using a BCA Protein Assay Reagent kit (Pierce Biotechnology, Rockford, IL). […]
substance,measurement,value
CCPM-BIDEN-AP: nanoconjugate of BIDEN-AP with core-crosslinked polymeric micelles (CCPM) (TN[dY]LFSPNGPIARAW; also: conjugated to core-crosslinked polymeric micelles (CCPM)),EphB4 and Crk1 phosphorylation in vitro (agonist activity),potent agonist activity

# — publication PMC6965176, “Targeting Forward and Reverse EphB4/EFNB2 Signaling by a Peptide with Dual Functions” (Scientific Reports, 2020)
